Where two headings read alike, the source gives them in different places.
Experiments:
M4 = molecular target: T1, M4 (Homo sapiens, UniProt P08173); settings: Data from Poster, CNS Summit (2013); cited from earlier work
T1 sequence (P08173 1-479): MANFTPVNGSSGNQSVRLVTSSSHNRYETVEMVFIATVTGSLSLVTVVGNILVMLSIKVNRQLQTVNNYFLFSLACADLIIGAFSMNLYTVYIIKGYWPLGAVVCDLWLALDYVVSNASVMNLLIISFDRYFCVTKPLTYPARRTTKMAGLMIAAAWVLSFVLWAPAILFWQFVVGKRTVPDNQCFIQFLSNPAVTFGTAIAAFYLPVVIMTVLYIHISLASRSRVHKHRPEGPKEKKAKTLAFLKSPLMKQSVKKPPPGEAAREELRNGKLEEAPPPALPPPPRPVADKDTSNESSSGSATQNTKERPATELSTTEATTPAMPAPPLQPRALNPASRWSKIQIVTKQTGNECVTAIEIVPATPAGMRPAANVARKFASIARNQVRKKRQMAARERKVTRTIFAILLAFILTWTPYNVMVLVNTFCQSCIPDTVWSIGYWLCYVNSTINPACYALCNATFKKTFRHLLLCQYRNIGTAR

Sigma1 [1] = molecular target: T2, Sigma1 (Homo sapiens, UniProt Q99720); settings: Data from Poster, CNS Summit (2013); cited from earlier work
T2 sequence (Q99720 whole entry): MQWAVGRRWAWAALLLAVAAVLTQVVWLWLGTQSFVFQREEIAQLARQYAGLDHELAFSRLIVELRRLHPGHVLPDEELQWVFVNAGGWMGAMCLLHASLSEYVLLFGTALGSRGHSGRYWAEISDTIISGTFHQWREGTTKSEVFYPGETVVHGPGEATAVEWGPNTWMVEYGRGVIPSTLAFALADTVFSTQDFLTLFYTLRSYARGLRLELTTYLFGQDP

M1 [2] = molecular target: T3, M1 (Homo sapiens, UniProt P11229); settings: Data from Poster, CNS Summit (2013); cited from earlier work
T3 sequence (P11229 1-460): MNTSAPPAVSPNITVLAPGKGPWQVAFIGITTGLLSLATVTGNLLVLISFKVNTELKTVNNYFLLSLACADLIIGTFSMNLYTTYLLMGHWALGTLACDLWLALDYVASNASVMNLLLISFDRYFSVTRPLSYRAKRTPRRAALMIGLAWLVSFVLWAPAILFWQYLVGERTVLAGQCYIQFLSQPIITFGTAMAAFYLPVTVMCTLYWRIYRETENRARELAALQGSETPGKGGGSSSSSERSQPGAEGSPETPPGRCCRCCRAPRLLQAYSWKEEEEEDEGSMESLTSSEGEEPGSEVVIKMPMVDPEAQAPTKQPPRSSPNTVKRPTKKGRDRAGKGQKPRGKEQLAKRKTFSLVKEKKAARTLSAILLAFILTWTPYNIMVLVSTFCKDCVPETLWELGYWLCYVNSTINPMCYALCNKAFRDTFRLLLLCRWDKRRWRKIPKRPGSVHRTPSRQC

M2 [3] = molecular target: T4, M2 (Homo sapiens, UniProt P08172); settings: Data from Poster, CNS Summit (2013); cited from earlier work
T4 sequence (P08172 1-466): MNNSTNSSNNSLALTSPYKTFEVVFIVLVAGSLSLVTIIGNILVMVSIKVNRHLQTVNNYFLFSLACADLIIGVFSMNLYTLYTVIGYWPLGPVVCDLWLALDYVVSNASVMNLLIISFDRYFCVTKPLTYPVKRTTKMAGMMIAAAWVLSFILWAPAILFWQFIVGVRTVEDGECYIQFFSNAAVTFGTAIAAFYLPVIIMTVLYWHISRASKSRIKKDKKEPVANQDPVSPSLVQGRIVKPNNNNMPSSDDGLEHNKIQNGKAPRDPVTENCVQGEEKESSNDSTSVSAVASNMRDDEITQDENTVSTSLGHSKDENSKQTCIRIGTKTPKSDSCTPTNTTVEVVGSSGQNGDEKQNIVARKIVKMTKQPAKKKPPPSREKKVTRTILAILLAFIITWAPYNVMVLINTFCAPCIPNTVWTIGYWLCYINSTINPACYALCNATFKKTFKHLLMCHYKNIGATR

M3 = M3 (Homo sapiens, UniProt P20309); settings: Data from Poster, CNS Summit (2013); cited from earlier work
Chain of M3 (P20309 whole entry): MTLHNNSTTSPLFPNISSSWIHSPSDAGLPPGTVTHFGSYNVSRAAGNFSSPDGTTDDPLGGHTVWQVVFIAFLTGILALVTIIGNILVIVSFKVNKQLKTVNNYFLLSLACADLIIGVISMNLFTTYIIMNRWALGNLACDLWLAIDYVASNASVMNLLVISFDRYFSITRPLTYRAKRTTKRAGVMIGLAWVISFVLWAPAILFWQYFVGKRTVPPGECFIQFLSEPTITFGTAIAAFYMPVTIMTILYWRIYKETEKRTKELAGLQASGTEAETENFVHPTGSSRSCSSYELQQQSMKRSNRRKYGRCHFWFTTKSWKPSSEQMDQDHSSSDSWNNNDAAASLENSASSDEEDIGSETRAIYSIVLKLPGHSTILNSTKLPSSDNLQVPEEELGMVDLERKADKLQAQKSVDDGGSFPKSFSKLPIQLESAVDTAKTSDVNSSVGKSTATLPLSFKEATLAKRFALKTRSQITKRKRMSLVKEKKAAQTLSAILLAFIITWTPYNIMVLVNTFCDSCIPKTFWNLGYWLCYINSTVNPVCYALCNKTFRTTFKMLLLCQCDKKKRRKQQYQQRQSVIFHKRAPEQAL

M1 [4] = molecular target: T3, M1; test: Muscarinic M1 receptor Ki determination (NIMH PDSP); format: binding
Description: (§1) The compounds from the above Examples were tested for Sigma-1 and muscarinic M1-M5) activities. Ki determinations were generously provided by the National Institute of Mental Health's Psychoactive Drug Screening Program (PDSP), Contract #HHSN-271-2013-00017-C (NIMH PDSP). The NIMH PDSP is directed by Bryan L. Roth M D, PhD at the University of North Carolina at Chapel Hill and Project Officer Jamie Driscoll at NIMH, Bethesda Md., USA. Procedures employed by the PDSP are described in the NIMH PDSP Assay Protocol Book, Version II and follow published literature protocols.

M2 [5] = molecular target: T4, M2; test: Muscarinic M2 receptor Ki determination (NIMH PDSP); format: binding
Description: as §1

M5 = molecular target: T5, M5 (Homo sapiens, UniProt P08912); test: Muscarinic M5 receptor Ki determination (NIMH PDSP); format: binding
T5 sequence (P08912 1-532): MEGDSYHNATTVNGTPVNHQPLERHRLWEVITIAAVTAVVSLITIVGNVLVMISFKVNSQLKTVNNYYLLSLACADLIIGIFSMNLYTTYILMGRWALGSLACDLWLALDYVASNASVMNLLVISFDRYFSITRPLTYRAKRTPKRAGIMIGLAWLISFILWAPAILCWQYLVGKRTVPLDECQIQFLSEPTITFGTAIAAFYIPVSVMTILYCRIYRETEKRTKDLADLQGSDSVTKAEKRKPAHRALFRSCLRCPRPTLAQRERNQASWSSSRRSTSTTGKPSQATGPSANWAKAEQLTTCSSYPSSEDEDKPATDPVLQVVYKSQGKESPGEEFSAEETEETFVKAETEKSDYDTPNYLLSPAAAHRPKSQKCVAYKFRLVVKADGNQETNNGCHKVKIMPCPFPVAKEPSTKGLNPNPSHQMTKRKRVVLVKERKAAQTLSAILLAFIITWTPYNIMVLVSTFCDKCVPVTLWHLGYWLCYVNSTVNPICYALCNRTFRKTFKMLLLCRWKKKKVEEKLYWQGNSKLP
Description: as §1

Sigma1 [6] = molecular target: T2, Sigma1; test: Sigma-1 receptor Ki determination (NIMH PDSP); format: binding
Description: as §1

| Ki (M1 [4]) [nM] | Ki (M2 [5]) [nM] | Ki (M5) [nM] | Ki (Sigma1 [6]) [nM] | Structure (SMILES) | Ki (M4) [nM] | Ki (Sigma1 [1]) [nM] | Ki (M1 [2]) [nM] | Ki (M2 [3]) [nM] | Ki (M3) [nM] |
| --- | --- | --- | --- | --- | --- | --- | --- | --- | --- |
|  |  |  |  | CN(C)CC1CCOC1(c1ccccc1)c1ccccc1 (stereo not drawn) [ANAVEX 2-73] | 5190 | 860 | 3320 | 3970 | 5330 |
| 1500 | 2570 | 1160 | 230 | CN(CCCC1(c2ccc(F)cc2)OCc2cc(C#N)ccc21)C1=NCCCC1 (stereo not drawn) [Example 3, 1-(4-fluorophenyl)-1-{3-[methyl(3,4,5,6-tetrahydropyridin-2-yl)amino]propyl}-1,3-dihydro-2-benzo-furan-5-carbonitrile] |  |  |  |  |  |
